According to ChEMBL document CHEMBL3421558, “Structure activity relationship of substituted 1,5-naphthyridine analogs of oxabicyclooctane-linked novel bacterial topoisomerase inhibitors as broad-spectrum antibacterial agents (Part-4)” (Bioorg Med Chem Lett, 2015):
Values after ≈ are worked out from the molar mass of the structure shown.

Key:
[1] = system: Staphylococcus aureus; experiment: Antimicrobial activity against Staphylococcus aureus in orally dosed mouse bacteremia survival model; assay type: functional; settings: po
[2] = system: Staphylococcus aureus; experiment: Antimicrobial activity against Staphylococcus aureus in iv dosed mouse bacteremia survival model; assay type: functional
[3] = system: Streptococcus pneumoniae; experiment: Antimicrobial activity against Streptococcus pneumoniae IID553 by micro broth dilution or agar based method; assay type: functional; settings: Streptococcus pneumoniae, IID553; read-out: MIC
[4] = system: Acinetobacter baumannii; experiment: Antimicrobial activity against Acinetobacter baumannii IID876 by micro broth dilution or agar based method; assay type: functional; settings: Acinetobacter baumannii, IID876; read-out: MIC
[5] = molecular target: Voltage-gated inwardly rectifying potassium channel KCNH2 (Homo sapiens, UniProt Q12809); experiment: Inhibition of MK499 binding to human ERG
[6] = system: Escherichia coli; experiment: Antimicrobial activity against Escherichia coli ATCC 25922 by micro broth dilution or agar based method; assay type: functional; settings: Escherichia coli, ATCC 25922; read-out: MIC
[7] = system: Pseudomonas aeruginosa; experiment: Antimicrobial activity against Pseudomonas aeruginosa PAO1 by micro broth dilution or agar based method; assay type: functional; settings: Pseudomonas aeruginosa, PAO1; read-out: MIC
[8] = system: Staphylococcus aureus; experiment: Antimicrobial activity against methicillin-resistant Staphylococcus aureus OIT971 by micro broth dilution or agar based method; assay type: functional
[9] = system: Staphylococcus aureus; experiment: Potency index, ratio of MIC for quinolone-resistant Staphylococcus aureus MS5935 to MIC for quinolone-[…]; assay type: functional
[10] = system: Enterococcus faecium; experiment: Antimicrobial activity against VanA expressing vancomycin-resistant Enterococcus faecium by micro broth dilution or agar based method; assay type: functional; settings: Enterococcus faecium; read-out: MIC
[11] = system: Staphylococcus aureus; experiment: Antimicrobial activity against Staphylococcus aureus Smith by micro broth dilution or agar based method; assay type: functional
[12] = Plasma clearance in C57BL/6 mouse at 1 mg/kg, iv or 10 mg/kg, po; assay type: ADME, organism-based
[13] = Half life in C57BL/6 mouse at 1 mg/kg, iv or 10 mg/kg, po; assay type: ADME, organism-based; settings: in vivo
[14] = Volume of distribution at steady state in C57BL/6 mouse at 1 mg/kg, iv or 10 mg/kg, po; assay type: ADME, organism-based; settings: in vivo, read-out: Vdss
[15] = system: Mus musculus; experiment: Dose normalized AUC in C57BL/6 mouse at 1 mg/kg, iv; assay type: ADME, organism-based; design: dose 1 mg/kg, route intravenous; settings: in vivo
[16] = Oral bioavailability in C57BL/6 mouse at 10 mg/kg; assay type: ADME, organism-based; settings: in vivo
[17] = Staphylococcus aureus, Smith, read-out: MIC

Voltage-gated inwardly rectifying potassium channel KCNH2, sequence (Q12809 whole entry): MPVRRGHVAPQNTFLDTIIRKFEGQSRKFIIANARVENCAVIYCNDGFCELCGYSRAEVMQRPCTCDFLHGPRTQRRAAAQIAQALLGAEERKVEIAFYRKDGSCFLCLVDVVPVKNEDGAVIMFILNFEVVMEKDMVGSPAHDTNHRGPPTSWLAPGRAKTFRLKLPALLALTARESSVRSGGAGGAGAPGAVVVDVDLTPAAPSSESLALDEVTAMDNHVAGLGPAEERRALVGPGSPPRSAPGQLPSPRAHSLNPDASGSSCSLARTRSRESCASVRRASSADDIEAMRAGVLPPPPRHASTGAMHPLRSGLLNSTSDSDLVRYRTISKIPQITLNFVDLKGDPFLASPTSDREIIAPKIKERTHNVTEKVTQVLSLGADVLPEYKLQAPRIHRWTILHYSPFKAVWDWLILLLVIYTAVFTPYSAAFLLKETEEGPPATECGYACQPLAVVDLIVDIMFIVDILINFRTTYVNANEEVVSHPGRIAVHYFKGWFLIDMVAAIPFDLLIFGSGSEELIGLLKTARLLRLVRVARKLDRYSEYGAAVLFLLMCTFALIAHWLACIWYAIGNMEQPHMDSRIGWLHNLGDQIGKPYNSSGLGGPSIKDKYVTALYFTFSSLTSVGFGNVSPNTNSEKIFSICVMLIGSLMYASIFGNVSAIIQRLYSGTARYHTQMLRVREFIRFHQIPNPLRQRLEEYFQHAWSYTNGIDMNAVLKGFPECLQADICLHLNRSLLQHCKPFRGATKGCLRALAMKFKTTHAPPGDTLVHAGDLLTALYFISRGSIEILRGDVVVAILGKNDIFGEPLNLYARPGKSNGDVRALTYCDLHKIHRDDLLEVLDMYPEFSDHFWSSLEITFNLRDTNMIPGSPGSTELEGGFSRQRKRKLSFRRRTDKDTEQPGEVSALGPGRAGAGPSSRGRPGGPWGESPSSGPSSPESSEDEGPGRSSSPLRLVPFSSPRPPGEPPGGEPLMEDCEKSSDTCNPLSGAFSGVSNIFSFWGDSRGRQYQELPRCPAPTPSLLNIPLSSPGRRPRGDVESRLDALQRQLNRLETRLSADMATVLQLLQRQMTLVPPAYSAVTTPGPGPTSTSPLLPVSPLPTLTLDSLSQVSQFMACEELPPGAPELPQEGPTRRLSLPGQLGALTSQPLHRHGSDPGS

| SMILES | ED50 [1] [mg/kg] | ED50 [2] [mg/kg] | MIC [3] [µg/mL] | MIC [4] [µg/mL] | IC50 [5] [nM] | MIC [6] [µg/mL] | MIC [7] [µg/mL] | MIC [8] [µg/mL] | Ratio [9] | MIC [10] [µg/mL] | MIC [11, 17] [µg/mL] | MIC [11] [µg/mL] | clearance [12] [mL/min/kg] | half-life [13] [h] | Vd [14] [L/kg] | AUC/dose [15] [µM·h/mg/kg] | bioavailability [16] [%] |
| --- | --- | --- | --- | --- | --- | --- | --- | --- | --- | --- | --- | --- | --- | --- | --- | --- | --- |
| COc1ccc2ncc(C#N)c(CC(O)C34CCC(NCc5ccc6c(n5)NC(=O)CO6)(CC3)CO4)c2n1.Cl (stereo not drawn) | 6.7 | 5.1 |  |  |  |  |  |  |  |  |  |  |  |  |  |  |  |
| CCOc1cc(C)c2ncc(F)c(CCC34CCC(NCc5ccc6c(n5)NC(=O)CO6)(CC3)CO4)c2n1 |  |  | 1 (≈ 1.92 µM) | 4 (≈ 7.67 µM) | 1190 | 8 (≈ 15.3 µM) | 32 (≈ 61.4 µM) | 0.031 (≈ 0.0594 µM) | <4 | 4 (≈ 7.67 µM) | 0.063 (≈ 0.121 µM) |  |  |  |  |  |  |
| N#Cc1ccc2ncc(C#N)c(CCC34CCC(NCc5ccc6c(n5)NC(=O)CO6)(CC3)CO4)c2n1 |  |  | 1 (≈ 2.02 µM) | 2 (≈ 4.04 µM) |  | 8 (≈ 16.1 µM) | 16 (≈ 32.3 µM) | 0.125 (≈ 0.252 µM) |  | 4 (≈ 8.07 µM) | 0.25 (≈ 0.504 µM) |  |  |  |  |  |  |
| COc1ccc2ncc(C#N)c(CC(O)C34CCC(NCc5ccc6c(n5)NC(=O)CO6)(CC3)CO4)c2n1 (stereo in doubt; 88) |  |  | 0.25 (≈ 0.484 µM) | 0.5 (≈ 0.968 µM) |  | 4 (≈ 7.74 µM) | 8 (≈ 15.5 µM) | 0.031 (≈ 0.06 µM) |  | 1 (≈ 1.94 µM) |  | 0.031 (≈ 0.06 µM) |  |  |  |  |  |
| COc1nc2c(CCC34CCC(NCc5ccc6c(n5)NC(=O)CO6)(CC3)CO4)ccnc2cc1F |  |  | 2 (≈ 4.05 µM) | 2 (≈ 4.05 µM) |  | 4 (≈ 8.1 µM) | 16 (≈ 32.4 µM) | 0.063 (≈ 0.128 µM) |  | 4 (≈ 8.1 µM) | 0.125 (≈ 0.253 µM) |  |  |  |  |  |  |
| COc1ccc2nccc(CCC34CCC(NCc5ccc6c(n5)NC(=O)CO6)(CC3)CO4)c2n1 |  |  | 0.5 (≈ 1.05 µM) | 2 (≈ 4.21 µM) |  | 2 (≈ 4.21 µM) | 8 (≈ 16.8 µM) | 0.031 (≈ 0.0652 µM) |  | 1 (≈ 2.1 µM) | 0.031 (≈ 0.0652 µM) |  | 40.8 | 7.97 | 5.95 | 0.86 | 30.4 |
| COc1cc2nccc(CCC34CCC(NCc5ccc6c(n5)NC(=O)CO6)(CC3)CO4)c2nc1OC |  |  | 8 (≈ 15.8 µM) | 8 (≈ 15.8 µM) |  | 8 (≈ 15.8 µM) | 8 (≈ 15.8 µM) | 1 (≈ 1.98 µM) |  | 8 (≈ 15.8 µM) | 2 (≈ 3.96 µM) |  |  |  |  |  |  |
| O=C1COc2ccc(CNC34CCC(CCc5ccnc6cc(C(F)(F)F)cnc56)(CC3)OC4)nc2N1 |  |  | 64 (≈ 125 µM) | 64 (≈ 125 µM) |  | 64 (≈ 125 µM) | 64 (≈ 125 µM) | 64 (≈ 125 µM) |  | 64 (≈ 125 µM) | 64 (≈ 125 µM) |  |  |  |  |  |  |
| COc1ccc2ncc(Cl)c(CCC34CCC(NCc5ccc6c(n5)NC(=O)CO6)(CC3)CO4)c2n1.Cl | > 50 | 17 |  |  |  |  |  |  |  |  |  |  |  |  |  |  |  |
| COc1ccc2ncc(O)c(CCC34CCC(NCc5ccc6c(n5)NC(=O)CO6)(CC3)CO4)c2n1 |  |  | 0.5 (≈ 1.02 µM) | 2 (≈ 4.07 µM) |  | 4 (≈ 8.14 µM) | 16 (≈ 32.6 µM) | 0.031 (≈ 0.0631 µM) |  | 2 (≈ 4.07 µM) | 0.031 (≈ 0.0631 µM) |  |  |  |  |  |  |
| CN(C)c1nc2c(CCC34CCC(NCc5ccc6c(n5)NC(=O)CO6)(CC3)CO4)ccnc2cc1F |  |  | 16 (≈ 31.6 µM) | 16 (≈ 31.6 µM) |  | 16 (≈ 31.6 µM) | 16 (≈ 31.6 µM) | 1 (≈ 1.97 µM) |  | 16 (≈ 31.6 µM) | 1 (≈ 1.97 µM) |  |  |  |  |  |  |
| COc1nc2c(CCC34CCC(NCc5ccc6c(n5)NC(=O)CO6)(CC3)CO4)c(F)cnc2cc1C(F)(F)F |  |  | 8 (≈ 14.2 µM) | 8 (≈ 14.2 µM) |  | 8 (≈ 14.2 µM) | 8 (≈ 14.2 µM) | 8 (≈ 14.2 µM) |  | 8 (≈ 14.2 µM) | 8 (≈ 14.2 µM) |  |  |  |  |  |  |
| COc1nc2c(CCC34CCC(NCc5ccc6c(n5)NC(=O)CO6)(CC3)CO4)c(F)cnc2cc1F |  |  | 0.25 (≈ 0.489 µM) | 1 (≈ 1.95 µM) |  | 4 (≈ 7.82 µM) | 8 (≈ 15.6 µM) | 0.016 (≈ 0.0313 µM) |  | 2 (≈ 3.91 µM) | 0.031 (≈ 0.0606 µM) |  |  |  |  |  |  |
